Reference: patent US11447486B2, “2-amino-benzimidazole derivatives and their use as 5-lipoxygenase and/or prostaglandin E synthase inhibitors” (INSTITUT PASTEUR KOREA, priority 2014, dated 2022)

How the values were obtained:
human 5-LOX = target: T1, human 5-LOX (Homo sapiens, UniProt P09917); test: 5-LOX enzyme activity, fluorescence method (5-HPETE, H2DCFDA); type: biochemical; conditions: read-out: 5-LO (IC50)
T1 construct: purchased Cayman 60402; host or cells: insect cells (lysate)
T1 sequence (P09917 1-674): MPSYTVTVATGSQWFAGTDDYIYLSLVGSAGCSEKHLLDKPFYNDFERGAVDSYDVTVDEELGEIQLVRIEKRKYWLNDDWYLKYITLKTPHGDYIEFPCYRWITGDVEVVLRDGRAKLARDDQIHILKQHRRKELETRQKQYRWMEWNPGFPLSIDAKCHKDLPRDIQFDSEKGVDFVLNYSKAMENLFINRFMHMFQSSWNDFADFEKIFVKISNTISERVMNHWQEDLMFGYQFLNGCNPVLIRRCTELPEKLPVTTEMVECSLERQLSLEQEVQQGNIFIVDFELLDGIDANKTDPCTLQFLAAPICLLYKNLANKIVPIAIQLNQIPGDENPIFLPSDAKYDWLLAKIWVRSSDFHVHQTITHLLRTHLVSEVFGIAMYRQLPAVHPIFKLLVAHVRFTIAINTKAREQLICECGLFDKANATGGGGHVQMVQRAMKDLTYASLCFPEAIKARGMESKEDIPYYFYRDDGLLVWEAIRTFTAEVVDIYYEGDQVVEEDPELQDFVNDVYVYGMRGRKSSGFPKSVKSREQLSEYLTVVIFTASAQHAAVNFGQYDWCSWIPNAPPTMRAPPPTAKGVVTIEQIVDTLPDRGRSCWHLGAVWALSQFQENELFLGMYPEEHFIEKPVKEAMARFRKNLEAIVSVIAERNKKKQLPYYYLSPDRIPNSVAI
Summary of the method: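 Compound (0.5 nM to 10 uM) pre-incubated 5 min with enzyme; reaction started with ATP (100 uM final) and arachidonic acid (3 uM final). All steps at room temperature, fluorescence read-out.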

[1] = test system: Rat basophilic leukemia (RBL) cells; test: LTB4 secretion assay in RBL (rat basophilic leukemia cells); type: cell-based; conditions: Rattus norvegicus, RBL
Summary of the method: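 Cells seeded 2×10^4/well the day before, then pre-incubated 15 min at 37 °C in EMEM/0.5% FBS with compound (5 nM to 100 uM). Stimulation with 2.5 uM arachidonic acid plus 5 uM A23187 (final) for 10 min at 37 °C; LTB4 in supernatant quantified by EIA.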

| Structure (SMILES) | IC50 (human 5-LOX) [µM] | EC50 [1] [µM] |
| --- | --- | --- |
| COc1ccc(Oc2ccc(CNc3nc4ccc(NC5COC5)cc4n3C)cc2)nc1 [Compound 331] | < 1 | < 10 |
| Cn1c(NCc2ccc(Oc3ccc(Cl)cn3)cc2Cl)nc2ccc(N)cc21 [Compound 285] | < 1 | < 10 |
| CN(C)c1nc2ccc(NCc3ccc(N(Cc4ncc[nH]4)c4ccc(F)cc4)cc3)cc2[nH]1 [Compound 216] | < 1 | < 10 |
| Cn1c(NCc2ccc(Oc3ncc(-c4ccc(Cl)cc4)cn3)cc2)nc2ccc(N)cc21 [Compound 460] | < 1 | < 10 |
| Cn1c(NCc2ccc(Oc3ccnc4cc(Cl)ccc34)cc2)nc2ccc(N)cc21 [Compound 375] | < 1 | < 10 |
| CN(C)c1nc2ccc(Nc3ccn(C)n3)cc2n1CCOc1ccc(OC(F)(F)F)cc1 [Compound 45] | > 10 | < 10 |
| Cn1c(NCCOc2ccc(Cl)c(Cl)c2)nc2cc(N)ccc21 [Compound 61] | < 1 | 10 to 20 |
| CN(C)C(=O)c1cnc(Oc2ccc(CNc3nc4ccc(N)cc4n3C)cc2)nc1 [Compound 456] | < 1 | > 20 |
| COCCn1c(NCc2ccc(Oc3ccc(Cl)cn3)cc2)nc2ccc(N)cc21 [Compound 263] | < 1 | 10 to 20 |
| Cn1c(NCc2ccc(Oc3ncc(Cl)cn3)cc2)nc2ccc(NC3CSC3)cc21 [Compound 366] | < 1 | < 10 |
| Cn1c(NCc2ccc(Oc3cccnc3)cc2)nc2ccc(N)cc21 [Compound 224] | < 1 | < 10 |
| Cn1c(NCc2ccc(Oc3ccc(Cl)cc3)cc2)nc2ccc(N3CC(O)C3)cc21 [Compound 192] | < 1 | < 10 |
| CN(C)c1nc2ccc(NCc3ccc(C4(C(N)=O)CCOCC4)cc3)cc2[nH]1 [Compound 237] | < 1 | > 20 |
| CCN(CC)c1nc2cc(N)ccc2n1CCc1ccc(F)cc1 [Compound 47] | > 10 | > 20 |
| Nc1ccc2nc(N)n(Cc3ccc(Oc4ccc(Cl)cn4)c(Cl)c3)c2c1 [Compound 255] | < 1 | < 10 |
| Nc1nc2ccc(N3CC(F)(F)C3)cc2n1Cc1ccc(Oc2ccc(Cl)cn2)cc1 [Compound 235] | > 10 | < 10 |
| Cc1cc(Oc2ccc(Cl)cn2)cc(C)c1CNc1nc2ccc(NC3COC3)cc2n1C [Compound 335] | < 1 | < 10 |
| Cc1cc(Oc2ncc(Cl)cn2)cc(C)c1CNc1nc2ccc(N)cc2n1C [Compound 385] | < 1 | 10 to 20 |
| CCOC(c1ccc(CNc2nc3ccc(N)cc3[nH]2)cc1)c1ccccn1 (stereo not drawn) [Compound 188] | < 1 | > 20 |
| Nc1ccc2nc(N3CCC(O)C3)n(Cc3ccc(Oc4ccc(Cl)cc4)cc3)c2c1 (stereo not drawn) [Compound 206] | < 1 | < 10 |

| Structure (SMILES) | IC50 (human 5-LOX) [µM] | EC50 [1] [µM] |
| --- | --- | --- |
| Cn1c(NCc2ccc(Oc3ccc(Cl)cc3)nc2)nc2ccc(N)cc21 [Compound 287] | < 1 | < 10 |
| Cn1nccc1-c1ccc(CNc2nc3cc(N)ccc3[nH]2)cc1 [Compound 200] | < 1 | < 10 |
| Clc1ccc(Oc2ccc(CNc3nc4ccc(NC5COC5)cc4n3C3COC3)cc2)nc1 [Compound 266] | < 1 | 10 to 20 |
| Cn1c(NCc2ccc(Oc3ncc(Cl)cc3Cl)cc2)nc2ccc(N)cc21 [Compound 321] | < 1 | 10 to 20 |
| CC(C)(O)Cn1c(NCc2ccc(Oc3ccc(Cl)cc3)cc2)nc2ccc(N)cc21 [Compound 209] | < 1 | < 10 |
| Nc1ccc2nc(NCc3ccc4c(c3)NCCC4)[nH]c2c1 [Compound 162] | < 1 | < 10 |
| Cn1c(NCc2ccc(Oc3nc4cc(Cl)ccc4o3)cc2)nc2ccc(N)cc21 [Compound 402] | < 1 | < 10 |
| Cn1c(NCc2ccc(Oc3cn4ccc(Cl)cc4n3)cc2)nc2ccc(N)cc21 [Compound 442] | < 1 | < 10 |
| FC(F)(F)Oc1ccc(OC2CCN(c3ccc4nc(NCCN5CCOCC5)[nH]c4c3)C2)cc1 (stereo not drawn) [Compound 143] | < 1 | 10 to 20 |
| Nc1ccc2c(c1)nc(-n1cc(F)cn1)n2CCOc1ccc(OC(F)(F)F)cc1 [Compound 82] | > 10 | 10 to 20 |
| Cn1c(NCc2ccc(Oc3ncc4c(Cl)cccc4n3)cc2)nc2ccc(N)cc21 [Compound 434] | < 1 | < 10 |
| Cn1c(NCc2ccc(Oc3ncc(Br)cn3)cc2)nc2ccc(N)cc21 [Compound 361] | < 1 | < 10 |
| CCC(Nc1nc2ccc(Nc3cc(C(F)(F)F)n(C)n3)cc2n1C)c1ccc(Oc2ncc(C(F)(F)F)cn2)cc1 (stereo not drawn) [Compound 520] | > 10 | < 10 |
| CC(c1ccc(Oc2ccc(Cl)cn2)cc1)n1c(N)nc2ccc(N)cc21 (stereo not drawn) [Compound 247] | < 1 | < 10 |
| Cn1c(NCc2ccc(Oc3ncc(Cl)c(C4CC4)n3)cc2)nc2ccc(N)cc21 [Compound 397] | < 1 | < 10 |
| Nc1ccc2nc(NCc3ccc(Oc4ccc(Cl)cn4)cc3)n(C3COC3)c2c1 [Compound 261] | < 1 | < 10 |
| COCCN(Cc1ccc(Oc2ccc(Cl)cn2)cc1)c1nc2ccc(NC3COC3)cc2n1C [Compound 339] | < 1 | 10 to 20 |
| Cn1c(NCc2ccc(Oc3ncc4cc(Cl)ccc4n3)cc2)nc2ccc(N)cc21 [Compound 405] | < 1 | < 10 |
| Cn1c(N(CCO)Cc2ccc(Oc3ccc(Cl)cn3)cc2)nc2ccc(NC3COC3)cc21 [Compound 318] | < 1 | > 20 |
| Nc1ccc2nc(N)n(Cc3ccc(OCc4ccc(Cl)cn4)cc3)c2c1 [Compound 254] | < 1 | < 10 |

| Structure (SMILES) | IC50 (human 5-LOX) [µM] | EC50 [1] [µM] |
| --- | --- | --- |
| CN(C)c1nc2cc(NCc3ccc(CC(N)=O)cc3)ccc2[nH]1 [Compound 232] | < 1 | > 20 |
| CN(C)c1nc2ccc(N)cc2n1CCOc1ccc(Cl)cc1 [Compound 39] | < 1 | 10 to 20 |
| CC(CC(F)(F)F)Nc1ccc2[nH]c(NCc3ccc(Oc4ccc(Cl)cc4)cc3)nc2c1 (stereo not drawn) [Compound 134] | < 1 | < 10 |
| Cn1c(NCc2ccc(Oc3ccc(Cl)cn3)cc2)nc2ccc(NCCc3ccccn3)cc21 [Compound 329] | < 1 | < 10 |
| Nc1ccc2nc(NCc3ccc4cccnc4c3)[nH]c2c1 [Compound 159] | < 1 | > 20 |
| CCC(Nc1nc2ccc(NC3COC3)cc2n1C)c1ccc(Oc2ccc(C(F)(F)F)cn2)cc1 (stereo not drawn) [Compound 549] | < 1 | < 10 |
| Cc1ccc(Oc2ccc(CNc3nc4ccc(N)cc4n3C)cc2)nc1 [Compound 352] | < 1 | < 10 |
| CC(C)(C(=O)c1ccc(CNc2nc3ccc(N)cc3[nH]2)cc1)C(F)(F)F [Compound 205] | < 1 | < 10 |
| CNC(=O)c1cnc(Oc2ccc(CNc3nc4ccc(N)cc4n3C)cc2)nc1 [Compound 462] | < 1 | > 20 |
| CN1CCN(CCNc2ccc3nc(NCc4ccc(Oc5ccc(Cl)cn5)cc4)n(C)c3c2)CC1 [Compound 333] | < 1 | < 10 |
| N#CCCNc1nc2ccc(NC3COC3)cc2n1Cc1ccc(Oc2ccc(Cl)cc2)cc1 [Compound 262] | > 10 | < 10 |
| O=S(=O)(c1ccc(Cl)cc1)c1ccc(CNc2nc3cc(NC4COC4)ccc3[nH]2)cc1 [Compound 133] | < 1 | 10 to 20 |
| Cn1c(NCc2ccc(Nc3ncc(Cl)cn3)cc2)nc2ccc(N)cc21 [Compound 458] | < 1 | < 10 |
| Nc1ccc2nc(NCc3ccc(Oc4ccc(Cl)cn4)cc3)n(CCO)c2c1 [Compound 259] | < 1 | < 10 |
| Cc1ccc(Oc2ccc(CNc3nc4ccc(NC5COC5)cc4n3C)cc2)nc1 [Compound 353] | < 1 | < 10 |
| Cc1cnc(Oc2ccc(CNc3nc4ccc(NC5COC5)cc4n3C)cc2)nc1 [Compound 349] | < 1 | < 10 |
| OCCn1c(NCc2ccc(Oc3ccc(Cl)cn3)cc2)nc2ccc(NC3COC3)cc21 [Compound 257] | < 1 | < 10 |
| Cn1c(NCc2ccc(Oc3ccc(Cl)cn3)nc2)nc2ccc(N)cc21 [Compound 308] | < 1 | > 20 |
| Cn1nccc1-c1ccc(CNc2nc3cc(NC4COC4)ccc3[nH]2)cc1 [Compound 201] | < 1 | > 20 |
| Nc1ccc2nc(-n3cc(F)cn3)n(CCOc3ccc(OC(F)(F)F)cc3)c2c1 [Compound 78] | > 10 | 10 to 20 |
